Like-named read-outs stand apart in the source and are kept apart here.
What was measured:
[1] = tested on: giant foxtail; experiment: Test C pre-/postemergence herbicide test; format: in vivo, Setaria faberi; details: for Plant response rating (0 = no effect, 100 = complete control), Foxtail, Giant: 62 g ai/ha; for Plant response rating (0 = no effect, 100 = complete control), Foxtail, Giant / Plant response rating, Foxtail, Giant: preemergence; for Foxtail, Giant plant response rating: Preemergence, 500 g ai/ha, scale 0 to 100, 0 no effect, 100 complete control
Summary of the method: (§1)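 Seeds were planted and sprayed preemergence with test chemicals in a non-phytotoxic solvent mixture containing surfactant; postemergence treatments went onto plants 2 to 18 cm tall (1- to 4-leaf stage). After 12 to 14 days in a greenhouse, injury was rated visually against untreated controls on a 0–100 scale.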

[2] = tested on: lambsquarters; experiment: Test C pre-/postemergence herbicide test; format: in vivo, Chenopodium album; details: for Plant response rating (0 = no effect, 100 = complete control), Lambsquarters: 62 g ai/ha; for Lambsquarters plant response rating: Preemergence, 500 g ai/ha, scale 0 to 100, 0 no effect, 100 complete control
Summary of the method: as §1

[3] = tested on: common (oilseed) sunflower; experiment: Test C pre-/postemergence herbicide test; format: in vivo, Helianthus annuus; details: for Plant response rating (0 = no effect, 100 = complete control), Sunflower: 62 g ai/ha; for Sunflower plant response rating: Preemergence, 500 g ai/ha, scale 0 to 100, 0 no effect, 100 complete control
Summary of the method: as §1

[4] = tested on: rice; experiment: Test B pre-/postemergence herbicide test; format: in vivo, Oryza sativa; details: 500 g ai/ha
Summary of the method: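 Herbicidal effect was judged by eye on a 0–100 scale after plants stood 13 to 15 days in the greenhouse following pre- or postemergence treatment with surfactant-containing formulations.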

[5] = tested on: rice; experiment: Test C flooded paddy test; format: in vivo, Oryza sativa
Summary of the method: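 Injury scored visually against controls on a 0 (no effect) to 100 (complete control) scale, 12 to 14 days after treatment in greenhouse. Flooded paddy plants treated at 2-leaf stage; postemergence plants at 1- to 4-leaf stage, 2 to 18 cm tall.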

[6] = tested on: velvetleaf; experiment: Test A pre-/postemergence herbicide test; format: in vivo, Abutilon theophrasti; details: for pest or weed control at 500 g/ha / pest or weed control at 2000 g/ha: Abutilon theophrasti, 240 h; for pest or weed control at 500 g/ha: 500 g ai/ha; for pest or weed control at 2000 g/ha: 2000 g ai/ha
Summary of the method: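 Seeds sown in sandy loam received a preemergence directed soil spray of compound in non-phytotoxic solvent with surfactant; postemergence plants (2–10 cm, one- to two-leaf stage) were sprayed to runoff at the same time. After ~10 days in greenhouse, injury was rated visually versus untreated controls (0 = no effect, 100 = complete control).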

[7] = tested on: large crabgrass; experiment: Test C pre-/postemergence herbicide test; format: in vivo, Digitaria sanguinalis; details: for Plant response rating (0 = no effect, 100 = complete control), Crabgrass, Large: 62 g ai/ha; for Plant response rating (0 = no effect, 100 = complete control), Crabgrass, Large / Plant response rating, Crabgrass, Large: preemergence; for Crabgrass, Large plant response rating: Preemergence, 500 g ai/ha, scale 0 to 100, 0 no effect, 100 complete control
Summary of the method: as §1

[8] = tested on: pigweed; experiment: Test C pre-/postemergence herbicide test; format: in vivo, Amaranthus retroflexus; details: for Plant response rating (0 = no effect, 100 = complete control), Pigweed: 62 g ai/ha; for Pigweed plant response rating: Preemergence, 500 g ai/ha, scale 0 to 100, 0 no effect, 100 complete control
Summary of the method: as §1

[9] = tested on: woolly cupgrass; experiment: Test C pre-/postemergence herbicide test; format: in vivo, Eriochloa villosa; details: for Plant response rating (0 = no effect, 100 = complete control), Cupgrass, Woolly: 62 g ai/ha; for Plant response rating (0 = no effect, 100 = complete control), Cupgrass, Woolly / Plant response rating, Cupgrass, Woolly: preemergence; for Cupgrass, Woolly plant response rating: Preemergence, 500 g ai/ha, scale 0 to 100, 0 no effect, 100 complete control
Summary of the method: as §1

[10] = tested on: smallflower umbrella sedge; experiment: Test C flooded paddy test; format: in vivo, Cyperus difformis
[11] = post-emergence, Postemergence, 0 to 100 scale, 0 no effect, 100 complete control, read-out: Plant response rating, Velvetleaf
[12] = 125 g ai/ha, scale 0 (no effect) to 100 (complete control), visual, 12 to 14 days
[13] = 250 g ai/ha, scale 0 to 100 (0 no effect, 100 complete control), visual, 12 to 14 days
[14] = 125 g ai/ha, scale 0 (no effect) to 100 (complete control), visual, 12 to 14 days, preemergence
[15] = 62 g ai/ha, scale 0 to 100 (0 no effect, 100 complete control)
[16] = 125 g ai/ha, scale 0 to 100 (0 no effect, 100 complete control)
[17] = 250 g ai/ha, scale of 0 to 100, 0 is no effect, 100 is complete control
[18] = 500 g ai/ha, visual rating after 12 to 14 days, scale 0 to 100 (0 no effect, 100 complete control)

CCn1nc(C(C)(C)C)cc1C(=O)Nc1cc(C(=O)N(C)C)ccc1F [Compound 6, N-[5-[(dimethylamino)carbonyl]-2-fluorophenyl]-3-(1,1-dimethylethyl)-1-ethyl-1H-pyrazole-5-carboxamide]
Plant response rating (0 = no effect, 100 = complete control), Foxtail, Giant [1]: 60
Foxtail, Giant plant response rating [1]: 100
pest or weed control at 125 g/ha ([1]; Setaria faberi, pre-emergence, 312 h, 125 g ai/ha, scale 0-100, read-out: Plant response rating, Foxtail, Giant): 80%
pest or weed control at 250 g/ha ([1]; Setaria faberi, pre-emergence, 312 h, 250 g ai/ha, scale 0 to 100 (0 no effect, 100 complete control), visual, 12 to 14 days, read-out: Plant response rating, Foxtail, Giant): 85%
Plant response rating (0 = no effect, 100 = complete control), Lambsquarters ([2]; preemergence): 100
pest or weed control at 125 g/ha ([2]; Chenopodium album, pre-emergence, 125 g ai/ha, scale 0-100, read-out: Plant response rating, Lambsquarters): 100%
pest or weed control at 250 g/ha ([2]; Chenopodium album, pre-emergence, 250 g ai/ha, scale 0 to 100 (0 no effect, 100 complete control), visual, 12 to 14 days, read-out: Plant response rating, Lambsquarters): 100%
Lambsquarters plant response rating [2]: 100
Plant response rating (0 = no effect, 100 = complete control), Sunflower ([3]; preemergence): 0
pest or weed control at 250 g/ha ([3]; Helianthus annuus, pre-emergence, 250 g ai/ha, scale 0 to 100 (0 no effect, 100 complete control), visual, 12 to 14 days, read-out: Plant response rating, Sunflower): 100%
Sunflower plant response rating [3]: 100
Rice plant response rating ([4]; Preemergence, scale 0 to 100): 100
plant injury at 62 g/ha ([5]; Oryza sativa, 62 g ai/ha, scale 0 to 100 (0 no effect, 100 complete control), read-out: Rice plant response rating): 40%
plant injury at 125 g/ha ([5]; Oryza sativa, 125 g ai/ha, scale of 0 to 100, 0 is no effect, 100 is complete control, read-out: Rice plant response rating): 80%
plant injury at 250 g/ha ([5]; Oryza sativa, 250 g ai/ha, visual rating after 12 to 14 days, scale 0 to 100 (0 no effect, 100 complete control), read-out: Plant response rating, Rice): 80%
plant injury at 500 g/ha ([5]; Oryza sativa, 500 g ai/ha, visual rating after 12 to 14 days, scale 0 to 100 (0 no effect, 100 complete control), read-out: Plant response rating, Rice): 90%
pest or weed control at 500 g/ha [6, 11]: 90%
pest or weed control at 2000 g/ha [6, 11]: 95%
pest or weed control at 500 g/ha ([6]; pre-emergence, Preemergence, visual rating, 0 to 100 scale (0 no effect, 100 complete control), read-out: Velvetleaf plant response rating): 100%
pest or weed control at 2000 g/ha ([6]; pre-emergence, Preemergence, 0 to 100 scale, 0 no effect, 100 complete control, read-out: Velvetleaf plant response rating): 100%
Plant response rating (0 = no effect, 100 = complete control), Crabgrass, Large [7]: 75
pest or weed control at 125 g/ha ([7]; Digitaria sanguinalis, pre-emergence, 312 h, 125 g ai/ha, scale 0-100, read-out: Plant response rating, Crabgrass, Large): 95%
pest or weed control at 250 g/ha ([7]; Digitaria sanguinalis, pre-emergence, 312 h, 250 g ai/ha, scale 0 to 100 (0 no effect, 100 complete control), visual, 12 to 14 days, read-out: Plant response rating, Crabgrass, Large): 95%
Crabgrass, Large plant response rating [7]: 100
Plant response rating (0 = no effect, 100 = complete control), Pigweed ([8]; preemergence): 100
pest or weed control at 250 g/ha ([8]; Amaranthus retroflexus, pre-emergence, 250 g ai/ha, scale 0 to 100 (0 no effect, 100 complete control), visual, 12 to 14 days, read-out: Plant response rating, Pigweed): 100%
Pigweed plant response rating [8]: 100
Plant response rating (0 = no effect, 100 = complete control), Cupgrass, Woolly [9]: 50
pest or weed control at 125 g/ha ([9]; Eriochloa villosa, pre-emergence, 312 h, 125 g ai/ha, scale 0-100, read-out: Plant response rating, Cupgrass, Woolly): 55%
pest or weed control at 250 g/ha ([9]; Eriochloa villosa, pre-emergence, 312 h, 250 g ai/ha, scale 0 to 100 (0 no effect, 100 complete control), visual, 12 to 14 days, read-out: Plant response rating, Cupgrass, Woolly): 75%
Cupgrass, Woolly plant response rating [9]: 75
pest or weed control at 62 g/ha ([10]; Cyperus difformis, 62 g ai/ha, scale 0 to 100 (0 no effect, 100 complete control), read-out: Sedge, Umbrella plant response rating): 70%
pest or weed control at 125 g/ha ([10]; Cyperus difformis, 125 g ai/ha, scale of 0 to 100, 0 is no effect, 100 is complete control, read-out: Sedge, Umbrella plant response rating): 90%
pest or weed control at 250 g/ha ([10]; Cyperus difformis, 250 g ai/ha, visual rating after 12 to 14 days, scale 0 to 100 (0 no effect, 100 complete control), read-out: Plant response rating, Sedge, Umbrella): 90%
pest or weed control at 500 g/ha ([10]; Cyperus difformis, 500 g ai/ha, visual rating after 12 to 14 days, scale 0 to 100 (0 no effect, 100 complete control), read-out: Plant response rating, Sedge, Umbrella): 90%

CCn1nc(C(C)(C)C)cc1C(=O)Nc1cccc(S(=O)(=O)C(F)(F)F)c1 [Compound 134]
Plant response rating (0 = no effect, 100 = complete control), Foxtail, Giant [1]: 0
Plant response rating, Foxtail, Giant [1, 12]: 0
Plant response rating, Foxtail, Giant [1, 13]: 0
Foxtail, Giant plant response rating [1]: 85
Plant response rating (0 = no effect, 100 = complete control), Lambsquarters ([2]; preemergence): 100
Plant response rating, Lambsquarters [2, 14]: 100
Lambsquarters plant response rating [2]: 100
Plant response rating (0 = no effect, 100 = complete control), Sunflower ([3]; preemergence): 0
Plant response rating, Sunflower [3, 14]: 0
Sunflower plant response rating [3]: 0
Plant response rating, Rice ([4]; visual rating 0-100, 0 no effect, 100 complete control, preemergence): 50
Rice plant response rating [5, 15]: 35
Rice plant response rating [5, 16]: 45
Rice plant response rating [5, 17]: 55
Plant response rating, Rice [5, 18]: 60
Velvetleaf plant response rating ([6]; Postemergence, 250 g ai/ha, 0 to 100 scale, 0 no effect, 100 complete control): 20
Plant response rating, Velvetleaf ([6]; Postemergence, 1000 g ai/ha, 0 to 100 scale, 0 no effect, 100 complete control): 20
Velvetleaf plant response rating ([6]; Preemergence, 1000 g ai/ha, visual rating, 0 to 100 scale (0 no effect, 100 complete control)): 40
Velvetleaf plant response rating ([6]; preemergence, 250 g ai/ha, visual injury, 0 to 100 scale (0 no effect, 100 complete control)): 15
Plant response rating (0 = no effect, 100 = complete control), Crabgrass, Large [7]: 65
Plant response rating, Crabgrass, Large [7, 12]: 95
Plant response rating, Crabgrass, Large [7, 13]: 95
Crabgrass, Large plant response rating [7]: 100
Plant response rating (0 = no effect, 100 = complete control), Pigweed ([8]; preemergence): 95
Plant response rating, Pigweed [8, 14]: 95
Pigweed plant response rating [8]: 100
Plant response rating (0 = no effect, 100 = complete control), Cupgrass, Woolly [9]: 0
Plant response rating, Cupgrass, Woolly [9, 12]: 0
Plant response rating, Cupgrass, Woolly [9, 13]: 20
Cupgrass, Woolly plant response rating [9]: 45
Sedge, Umbrella plant response rating [10, 15]: 55
Sedge, Umbrella plant response rating [10, 16]: 75
Sedge, Umbrella plant response rating [10, 17]: 85
Plant response rating, Sedge, Umbrella [10, 18]: 85
